{"source": "paper PMC6030096", "about": "“Synergy of Physico-chemical and Biological Experiments for Developing a Cyclooxygenase-2 Inhibitor” (Scientific Reports, 2018)", "key": {"[1]": {"molecular_target": "T1, 5-LOX (Soybean lipoxygenase) (Glycine max, UniProt P08170)", "T1 construct": "purchased Cayman Chemical Co. 760700", "T1 sequence (P08170 1-839)": "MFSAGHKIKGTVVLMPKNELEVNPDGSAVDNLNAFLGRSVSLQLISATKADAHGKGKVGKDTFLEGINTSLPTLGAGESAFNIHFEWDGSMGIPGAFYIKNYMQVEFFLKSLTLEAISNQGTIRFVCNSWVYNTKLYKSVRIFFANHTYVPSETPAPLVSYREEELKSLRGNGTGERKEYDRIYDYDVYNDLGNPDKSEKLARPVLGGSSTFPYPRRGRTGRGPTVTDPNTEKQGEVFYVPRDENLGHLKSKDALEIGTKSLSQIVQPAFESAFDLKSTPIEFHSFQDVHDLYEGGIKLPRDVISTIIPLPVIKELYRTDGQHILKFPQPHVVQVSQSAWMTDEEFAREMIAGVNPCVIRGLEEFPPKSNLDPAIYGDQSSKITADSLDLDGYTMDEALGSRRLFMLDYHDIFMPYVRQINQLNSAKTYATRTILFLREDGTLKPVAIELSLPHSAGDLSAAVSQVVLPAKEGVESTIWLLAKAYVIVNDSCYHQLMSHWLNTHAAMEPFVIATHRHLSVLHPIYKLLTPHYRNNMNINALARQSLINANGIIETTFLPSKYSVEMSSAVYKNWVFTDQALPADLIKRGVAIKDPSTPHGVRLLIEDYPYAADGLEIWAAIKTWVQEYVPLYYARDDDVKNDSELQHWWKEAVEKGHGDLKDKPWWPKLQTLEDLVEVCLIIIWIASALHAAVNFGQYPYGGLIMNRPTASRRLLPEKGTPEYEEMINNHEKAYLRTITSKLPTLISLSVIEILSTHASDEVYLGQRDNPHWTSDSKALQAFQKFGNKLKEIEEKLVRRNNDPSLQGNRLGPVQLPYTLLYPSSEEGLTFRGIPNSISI", "assay": "Lipoxygenase inhibitory activity assay", "type": "biochemical", "description": "10 µL of the compound of each concentration was mixed with 90 µL 5-LOX (Soybean lipoxygenase in assay buffer) in the specified wells of the 96-well plate. Two wells containing assay buffer and AA acted as blanks whereas four wells, each carrying enzyme and AA, were positive controls. 10 µL AA was added to each test well and the plate was shaken for 5 min. Chromogen (100 µL) was added to each well and the plate was again shaken for 5 min. The absorbance of each well at 490 nm was recorded on microplate scanning spectrophotometer. As per the protocol given with the assay kit, the 5-LOX inhibitory activity for each compound at each concentration was determined using the mean of the two values (duplicate experiments) with deviation <5%."}, "COX-2": {"molecular_target": "T2, COX-2 (Homo sapiens, UniProt P35354)", "T2 sequence (P35354 18-604)": "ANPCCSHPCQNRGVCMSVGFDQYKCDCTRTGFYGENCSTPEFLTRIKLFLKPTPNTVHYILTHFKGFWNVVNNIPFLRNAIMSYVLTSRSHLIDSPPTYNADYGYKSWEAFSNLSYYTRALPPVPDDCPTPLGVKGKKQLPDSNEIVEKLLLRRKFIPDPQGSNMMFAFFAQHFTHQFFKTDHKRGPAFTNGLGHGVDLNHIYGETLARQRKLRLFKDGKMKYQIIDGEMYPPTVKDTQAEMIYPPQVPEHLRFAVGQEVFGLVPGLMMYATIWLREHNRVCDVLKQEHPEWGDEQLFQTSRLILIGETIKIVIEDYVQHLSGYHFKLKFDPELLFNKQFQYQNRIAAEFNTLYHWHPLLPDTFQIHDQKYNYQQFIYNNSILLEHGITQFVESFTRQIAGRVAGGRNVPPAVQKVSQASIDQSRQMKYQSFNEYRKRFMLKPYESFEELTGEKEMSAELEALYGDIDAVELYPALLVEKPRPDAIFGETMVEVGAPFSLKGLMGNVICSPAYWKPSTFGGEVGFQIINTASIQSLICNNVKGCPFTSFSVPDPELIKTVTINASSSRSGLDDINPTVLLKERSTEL", "assay": "Human whole blood assay for COX-2 (LPS stimulated PGE2)", "type": "cell-based", "design": "endogenous in cells; host or cells: human whole blood, aspirin-pretreated, LPS-stimulated", "conditions": "final conc 1 µM, LPS 10 µg mL^−1", "description": "The use of human blood for the whole blood assay was duly approved by the institutional ethical committee of the University for human subjects. Production of prostaglandin PGE2 during lipopolysaccharide (LPS) stimulated whole blood was used to quantify COX-2 inhibitory activity whereas calcium ionophore (A23187) stimulated thromboxane (TxB2) production was used to measure COX-1 inhibitory activity of the compounds.\nCOX-2 assay was performed by inactivating COX-1 with 50 µL aspirin (10 µg/mL) per 400 µL of blood sample."}, "[2]": {"conditions": "soybean lipoxygenase, duplicate, read-out: IC50 5-LOX"}}, "note": "Read-outs that look alike come from different tables or passages of the source."}
{"smiles": "O=C1NC(=O)C(=Cc2cn(CCCn3c4ccccc4c(=O)c4ccccc43)c3ccccc23)C(=O)N1", "note": "[Compound 4a]", "values": [{"measurement": "IC50", "setting": "[1]", "value": "200 ± 10", "unit": "nM"}, {"measurement": "Production of PGE2, +LPS", "setting": "COX-2", "value": "1.00 ± 0.13", "unit": "ng/mL"}]}
{"smiles": "O=C1Nc2ccccc2C1=Cc1cn(C[C@H](O)Cn2c3ccccc3c(=O)c3ccccc32)c2ccccc12", "note": "[(S)-3c]", "values": [{"measurement": "IC50", "setting": "[1]; [2]", "value": "500 ± 28", "unit": "nM"}, {"measurement": "Production of PGE2, +LPS", "setting": "COX-2", "value": "0.97 ± 0.09", "unit": "ng/mL"}]}
{"smiles": "O=C1Nc2ccccc2C1=Cc1cn(CCCn2c3ccccc3c(=O)c3ccccc32)c2ccccc12", "note": "[Compound 4c]", "values": [{"measurement": "IC50", "setting": "[1]; [2]", "value": "100 ± 80", "unit": "nM"}, {"measurement": "Production of PGE2, +LPS", "setting": "COX-2", "value": "1.01 ± 0.14", "unit": "ng/mL"}]}
